MLC and MIC data for 3 compounds are collected here from ChEMBL document CHEMBL3763059, “Lanostane-type triterpenes from the fungal endophyte Scleroderma UFSMSc1 (Persoon) Fries” (2016).

Type in all cases: functional
One assay has as its system Candida albicans. Put plainly: Antifungal activity against Candida albicans ATCC 10231 after 48 hrs by microdilution method. As to conditions: for MIC: Candida albicans, ATCC 10231, 48 h.
For a further assay, the system named is Candida parapsilosis. The assay is described as follows: Antifungal activity against Candida parapsilosis ATCC 22018 after 48 hrs by micro dilution method. As to conditions: for MIC: Lodderomyces parapsilosis, ATCC 22018, 48 h.
The next assay relates to Pichia kudriavzevii. Put plainly: Antifungal activity against Candida krusei ATCC 6258 after 48 hrs by micro dilution method. As to conditions: for MIC: Pichia kudriavzevii, ATCC 6258, 48 h.
For a further assay, the system named is Candida tropicalis. Put plainly: Antifungal activity against Candida tropicalis ATCC 18803 after 48 hrs by micro dilution method. As to conditions: for MIC: Candida tropicalis, ATCC 18803, 48 h.

In brackets after ≈: the same amount, converted by molar mass.

Turning to `C=C(C)/C=C/C[C@@H](C)[C@H]1CC[C@@]2(C)C3=C(CC[C@]12C)[C@@]1(C)CC[C@H](O)C(C)(C)[C@@H]1CC3`, the MLC in the assay with Candida albicans was over 100 µg/mL; in the assay on Candida parapsilosis it was 50 µg/mL (≈ 118 µM); in the assay with Pichia kudriavzevii, 100 µg/mL (≈ 235 µM); in the assay on Candida tropicalis, 100 µg/mL (≈ 235 µM). Also, the MIC in the assay with Candida albicans stood at 50 µg/mL (≈ 118 µM); in the assay with Candida parapsilosis it was 25 µg/mL (≈ 58.9 µM); with Pichia kudriavzevii it was 12.5 µg/mL (≈ 29.4 µM); with Candida tropicalis it was 50 µg/mL (≈ 118 µM).

In the case of `C[C@H](C/C=C/C(C)(C)O)[C@H]1CC[C@@]2(C)C3=C(CC[C@]12C)[C@@]1(C)CC[C@H](O)C(C)(C)[C@@H]1CC3` (relative stereo), the MLC in the assay with Candida albicans is over 100 µg/mL; with Candida parapsilosis, 100 µg/mL (≈ 226 µM); with Pichia kudriavzevii, 100 µg/mL (≈ 226 µM); in the assay with Candida tropicalis it was over 100 µg/mL. Besides, the MIC is 50 µg/mL (≈ 113 µM) against Candida albicans, 50 µg/mL (≈ 113 µM) against Candida parapsilosis, 12.5 µg/mL (≈ 28.2 µM) against Pichia kudriavzevii and 50 µg/mL (≈ 113 µM) in the assay with Candida tropicalis.

In the case of `COC(C)(C)/C=C/C[C@@H](C)[C@H]1CC[C@@]2(C)C3=C(CC[C@]12C)[C@@]1(C)CC[C@H](O)C(C)(C)[C@@H]1CC3` (relative stereo), the MLC came to 25 µg/mL (≈ 54.7 µM) with Candida albicans, 25 µg/mL (≈ 54.7 µM) in the assay on Candida parapsilosis, 12.5 µg/mL (≈ 27.4 µM) in the assay with Pichia kudriavzevii and 25 µg/mL (≈ 54.7 µM) in the assay with Candida tropicalis. Also, the MIC worked out at 25 µg/mL (≈ 54.7 µM) with Candida albicans, 12.5 µg/mL (≈ 27.4 µM) against Candida parapsilosis, 6.25 µg/mL (≈ 13.7 µM) in the assay with Pichia kudriavzevii and 25 µg/mL (≈ 54.7 µM) in the assay with Candida tropicalis.
